Test results published in patent publication US6294674A, “Dibenzofuran sulfonamide matrix metalloproteinase inhibitors” (priority 1999, dated 2001).
Where two headings read alike, the source gives them in different places.

Assays:
MMP01 = target: T1, MMP01 (Homo sapiens, UniProt P03956); experiment: Thiopeptolide assay, MMP01; type: biochemical
T1 construct: purchased Washington University School of Medicine, St. Louis, Mo
T1 sequence (P03956 100-469): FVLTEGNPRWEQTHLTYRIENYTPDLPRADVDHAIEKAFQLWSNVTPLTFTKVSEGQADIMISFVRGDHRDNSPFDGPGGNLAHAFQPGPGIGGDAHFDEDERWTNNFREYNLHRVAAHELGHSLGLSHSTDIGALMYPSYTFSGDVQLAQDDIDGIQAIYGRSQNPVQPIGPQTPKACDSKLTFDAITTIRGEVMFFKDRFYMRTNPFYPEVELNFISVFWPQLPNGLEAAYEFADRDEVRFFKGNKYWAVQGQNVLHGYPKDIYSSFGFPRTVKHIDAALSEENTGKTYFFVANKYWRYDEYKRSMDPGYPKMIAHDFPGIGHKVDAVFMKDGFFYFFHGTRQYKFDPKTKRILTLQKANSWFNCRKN
Description: (§1) MMP01, MMP07, MMP09, and MMP13 activity was assayed in a method similar to MMP02 and MMP03 (SCD and GCD). MMP01 and MMP09 can be obtained from Washington University School of Medicine, St. Louis, Mo. MMP07 can be obtained in accordance with the known procedure set forth by Ye QZ, Johnson L. L., and Baragi V., "Gene Syntheses and Expression in E. coli for PUMP, a Human Matrix Metalloproteinase" Biochem. and Biophys. […] MMP 13 can be obtained in accordance with the known procedure set forth by Freije J. M. P., et al., "Molecular Cloning and Expression of Collegenase-3, a Novel Human Matrix Metalloproteinase Produced by Breast Carcinomas" J. Bio.
(§2) Hydrolysis of the thiopeptolide substrate Ac-Pro-Leu-Gly-thioester-Leu-Leu-Gly-OEt (Bachem) is used as the primary screen to determine IC50 values for MMP inhibitors. A 100 μL reaction contains 1 mM 5,5'-dithiobis(2-nitrobenzoic acid) (DTNB), 100 μM substrate, 0.1% Brij, enzyme, and inhibitor in the appropriate reaction buffer. Activated full-length enzymes are assayed at 5 nM, Stromelysin Catalytic Domain (SCD) at 10 nM, and Gelatinase A Catalytic Domain (GaCD) at 1 nM. Inhibitors are screened from 100 μM to 1 nM. Full-length enzymes are assayed in 50 mM HEPES, 10 mM CaCl2, pH 7.0; SCD in 50 mM MES, 10 mM CaCl2, pH 6.0; and GaCD in 50 mM MOPS, 10 mM CaCl2, 10 μM ZnCl2, pH 7.0.

MMP-13CD = experiment: Thiopeptolide assay, MMP-13CD; type: biochemical, human; settings: Tables 2, 3, 5, 7
Description: IC50 values were determined using a thiopeptolide substrate, Ac-Pro-Leu-Gly-thioester-Leu-Leu-Gly-OEt (Ye Q.-Z., Johnson L. L., Hupe D. J., and Baragi V., "Purification and Characterization of the Human Stromelysin Catalytic Domain Expressed in Escherichia coli," Biochemistry, 1992;31:11231-11235). MMP01, MMP07, MMP09, and MMP13 activity was assayed in a method similar to MMP02 and MMP03 (SCD and GCD). MMP01 and MMP09 can be obtained from Washington University School of Medicine, St. Louis, Mo. MMP07 can be obtained in accordance with the known procedure set forth by Ye QZ, Johnson L. L., and Baragi V., "Gene Syntheses and Expression in E. coli for PUMP, a Human Matrix Metalloproteinase" Biochem. and Biophys. Res. Comm., 1992; 186:143-149. MMP 13 can be obtained in accordance with the known procedure set forth by Freije J. M. P., et al., "Molecular Cloning and Expression of Collegenase-3, a Novel Human Matrix Metalloproteinase Produced by Breast Carcinomas" J. Bio. Chem., 1994;269:16766-6773.
as §2, with “7.0. The change in absorbance at 405 riM is monitored on a ThermoMax microplate reader at room temperature continuously for 20 minutes.” for “7.0.”

MMP07 = target: T2, MMP07 (Homo sapiens, UniProt P09237); experiment: Thiopeptolide assay, MMP07; type: biochemical
T2 construct: made in house; host or cells: Escherichia coli
T2 sequence (P09237 95-267): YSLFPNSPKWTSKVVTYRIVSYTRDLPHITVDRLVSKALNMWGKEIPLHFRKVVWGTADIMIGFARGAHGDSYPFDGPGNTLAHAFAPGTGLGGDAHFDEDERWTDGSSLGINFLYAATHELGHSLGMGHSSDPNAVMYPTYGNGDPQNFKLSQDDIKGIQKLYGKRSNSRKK
Description: as §1, §2

[1] = target: gelatinase A catalytic domain (MMP02); experiment: Thiopeptolide assay, gelatinase A catalytic domain (GCD, MMP02); type: biochemical
Description: as §2

[2] = target: T3, stromelysin-1 catalytic domain (MMP03) (Homo sapiens, UniProt P08254); experiment: Thiopeptolide assay, stromelysin-1 catalytic domain (SCD, MMP03); type: biochemical
T3 construct: SCD (stromelysin-1 catalytic domain); made in house; host or cells: Escherichia coli
T3 sequence (P08254 100-272 limits assumed): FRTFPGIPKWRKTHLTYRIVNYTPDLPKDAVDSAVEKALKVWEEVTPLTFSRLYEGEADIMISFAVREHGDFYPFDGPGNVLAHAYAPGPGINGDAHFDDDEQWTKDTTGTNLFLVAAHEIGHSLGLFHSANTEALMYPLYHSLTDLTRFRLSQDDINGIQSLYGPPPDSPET
Description: as §2

[3] = Tables 2, 3, 5, 7, read-out: IC50 MMP1
[4] = Tables 2, 3, 5, 7, read-out: IC50 MMP-7
[5] = Tables 2, 3, 5, 7, read-out: IC50 MMP-2CD
[6] = Tables 2, 3, 5, 7, read-out: IC50 MMP 3CD
[7] = Table 1, GCD, read-out: IC50 MMP02
[8] = Table 1, SCD, read-out: IC50 MMP03

| IC50 (MMP01; [3]) | IC50 (MMP-13CD) | IC50 (MMP07; [4]) | IC50 [1, 5] | IC50 [2, 6] | IC50 (MMP01; Table 1, read-out: IC50 MMP01) | IC50 (MMP07; Table 1, read-out: IC50 MMP07) | IC50 [1, 7] | IC50 [2, 8] | SMILES |
| --- | --- | --- | --- | --- | --- | --- | --- | --- | --- |
| 68.7 µM | 0.3 µM | 14.8 µM | 0.2 µM | 0.2 µM |  |  |  |  | O=C(CCC(NS(=O)(=O)c1ccc2oc3ccccc3c2c1)C(=O)O)NC1CC1 (stereo not drawn) [Example F6, 4-Cyclopropylcarbamoyl-2-(dibenzofuran-2-sulfonylamino)-butyric acid] |
| > 100 µM | 4.1 µM | 62 µM | 1.4 µM | 1.9 µM |  |  |  |  | O=C(CCC(NS(=O)(=O)c1ccc2oc3ccccc3c2c1)C(=O)O)NCCc1ccncc1 (stereo not drawn) [Example F1, 2-(Dibenzofuran-2-sulfonylamino)-4-(2-pyridin-4-yl-ethylcarbamoyl)-butyric acid] |
| > 100 µM | 24.1 µM | > 100 µM | 3.9 µM | 8.7 µM |  |  |  |  | CC(O)CNC(=O)CCC(NS(=O)(=O)c1ccc2oc3ccccc3c2c1)C(=O)O (stereo not drawn) [Example F3, 2-(Dibenzofuran-2-sulfonylamino)-4-(2-hydroxy-propylcarbamoyl)-butyric acid] |
| > 100 µM | 3.7 µM | 32.4 µM | 0.3 µM | 0.7 µM |  |  |  |  | O=C(CCC(NS(=O)(=O)c1ccc2oc3ccccc3c2c1)C(=O)O)Nc1ccc(Cl)cc1 (stereo not drawn) [Example F12, 4-(4-Chloro-phenylcarbamoyl)-2-(dibenzofuran-2-sulfonylamino)-butyric acid] |
| > 100 µM | 1.2 µM | 26.4 µM | 0.9 µM | 1.8 µM |  |  |  |  | CCC(C)CNC(=O)CCC(NS(=O)(=O)c1ccc2oc3ccccc3c2c1)C(=O)O (stereo not drawn) [Example F2, 2-(Dibenzofuran-2-sulfonylamino)-4-(2-methyl-butylcarbamoyl)-butyric acid] |

The remaining lines, values behind:

| SMILES | IC50 (MMP01; [3]) | IC50 (MMP-13CD) | IC50 (MMP07; [4]) | IC50 [1, 5] | IC50 [2, 6] | IC50 (MMP01; Table 1, read-out: IC50 MMP01) | IC50 (MMP07; Table 1, read-out: IC50 MMP07) | IC50 [1, 7] | IC50 [2, 8] |
| --- | --- | --- | --- | --- | --- | --- | --- | --- | --- |
| CC(C)(C)c1ccc(OCC(=O)NCCCCC(NS(=O)(=O)c2ccc3oc4ccccc4c3c2)C(=O)O)cc1 (stereo not drawn) [Example A10, 6-[2-(4-tert-Butyl-phenoxy)actylamino]-2-(dibenzofuran-2-sulfonylamino)-hexanoic acid] | > 100 µM | 63 µM | > 100 µM | 9.4 µM | 26.5 µM |  |  |  |  |
| CCC(Oc1ccccc1)C(=O)NCCCCC(NS(=O)(=O)c1ccc2oc3ccccc3c2c1)C(=O)O (stereo not drawn) [Example A6, 2-(Dibenzofuran-2-sulfonylamino)-6-(2-phenoxy-butrylamino)-hexanoic acid] | > 100 µM | 8 µM | > 100 µM | 1.5 µM | 3.9 µM |  |  |  |  |
| O=C(NCCCC[C@H](NS(=O)(=O)c1ccc2oc3ccccc3c2c1)C(=O)O)OCc1ccccc1 [Example 3, 6-Benzyloxycarbonylamino-2-(dibenzofuran-2-sulfonylamino)-hexanoic acid] |  |  |  |  |  | 62 µM | 3.3 µM | 0.35 µM | 0.18 µM |
| O=C(Cc1ccccc1C(F)(F)F)NCCCCC(NS(=O)(=O)c1ccc2oc3ccccc3c2c1)C(=O)O (stereo not drawn) [Example A4, 2-(Dibenzofuran-2-sulfonylamino)-6-[2-(2-trifluoromethyl-phenyl)-acetylamino]-hexanoic acid] | > 100 µM | 3.7 µM | > 100 µM | 2.7 µM | 4.6 µM |  |  |  |  |
| C=CCNC(=O)NCCCCC(NS(=O)(=O)c1ccc2oc3ccccc3c2c1)C(=O)O (stereo not drawn) [Example B8, 6-(3-Allyl-ureido)-2-(dibenzofuran-2-sulfonylamino)-hexanoic acid] | > 100 µM | 7.6 µM | > 100 µM | 1.1 µM | 3 µM |  |  |  |  |
| O=C(Cc1ccc2c(c1)OCO2)NCCCCC(NS(=O)(=O)c1ccc2oc3ccccc3c2c1)C(=O)O (stereo not drawn) [Example A19, 6-(2-Benzo[1,3]dioxol-5-yl-acetylamino)-2-(dibenzofuran-2-sulfonylamino)-hexanoic acid] | > 100 µM | 3 µM | 92.9 µM | 1 µM | 1.7 µM |  |  |  |  |
| O=C(O)C(CCCCNS(=O)(=O)c1ccc(Br)cc1)NS(=O)(=O)c1ccc2oc3ccccc3c2c1 (stereo not drawn) [Example D3, 6-(4-Bromo-benzenesulfonylamino)-2-(dibenzofuran-2-sulfonylamino)-hexanoic acid] | > 100 µM | 11.8 µM | > 100 µM | 2.9 µM | 8.6 µM |  |  |  |  |
| O=C(O)C(CCCCNC(=S)NC12CC3CC(CC(C3)C1)C2)NS(=O)(=O)c1ccc2oc3ccccc3c2c1 (stereo not drawn) [Example B6, 6-(3-Adamantan-1-yl-thioureido)-2-(dibenzofuran-2-sulfonylamino)-hexanoic acid] | > 100 µM | 4.4 µM | > 100 µM | 3.1 µM | 9 µM |  |  |  |  |
| O=C(O)C(CCCCNC(=S)NCc1ccccc1)NS(=O)(=O)c1ccc2oc3ccccc3c2c1 (stereo not drawn) [Example B5, 6-(3-Benzyl-thioureido)-2-(dibenzofuran-2-sulfonylamino)-hexanoic acid] | > 100 µM | 3.3 µM | > 100 µM | 1.2 µM | 2.3 µM |  |  |  |  |
| O=C(O)C(CCCCNS(=O)(=O)c1ccc(F)cc1)NS(=O)(=O)c1ccc2oc3ccccc3c2c1 (stereo not drawn) [Example D1, 2-(Dibenzofuran-2-sulfonylamino)-6-(4-fluoro-benzenesulfonylamino)-hexanoicacid] | > 100 µM | 2.4 µM | > 100 µM | 1.7 µM | 2.9 µM |  |  |  |  |
| O=C(CCCc1ccc([N+](=O)[O-])cc1)NCCCCC(NS(=O)(=O)c1ccc2oc3ccccc3c2c1)C(=O)O (stereo not drawn) [Example A21, 2-(Dibenzofuran-2-sulfonylamino)-6-[4-(4-nitro-phenyl)-butyrylamino]-hexanoic acid] | > 100 µM | 9.2 µM | > 100 µM | 3.3 µM | 7.5 µM |  |  |  |  |
| CC(C)C[C@H](CNS(=O)(=O)c1ccc2oc3ccccc3c2c1)CC(=O)O [Example 2, 2(S)-3-[(Dibenzofuran-2-sulfonylamino)-methyl]-5-methyl-hexanoic acid] |  |  |  |  |  |  |  | 100 µM | 86 µM |
